12 molecules from PubChem BioAssay AID328 (DTP/NCI, 2004) can be followed below.

The subject of this assay is BDF1 mice, P388 leukemia ip, median survival T/C. The assay can be described thus: NCI In Vivo Anticancer Drug Screen. Data for tumor model P388 Leukemia (intraperitoneal) in B6D2F1 (BDF1) mice. Particulars: endpoint: median survival time, higher = longer survival. The method, boiled down:
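Mice carrying the transplantable tumour receive compound or vehicle. Survival is followed in each arm, and the treated measure is divided by the vehicle measure.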

Setting [1] is: dose: 3.13 mg/kg/injection, schedule: Q01DX009 (ip), vehicle: saline with Tween-80.
Setting [2] is: dose: 12.5 mg/kg/injection, schedule: Q01DX009 (ip), vehicle: saline.
Setting [3] is: dose: 25.0 mg/kg/injection, schedule: Q01DX009 (ip), vehicle: saline.
Where [4] appears, read: dose: 12.5 mg/kg/injection, schedule: Q01DX009 (ip), vehicle: saline with Tween-80.
Setting [5] is: dose: 100.0 mg/kg/injection, schedule: Q01DX009 (ip), vehicle: Klucel (hydroxypropylcellulose) (HPC).
Where [6] appears, read: dose: 100.0 mg/kg/injection, schedule: Q04DX003 (ip), vehicle: Klucel (hydroxypropylcellulose) (HPC).
Where [7] appears, read: dose: 200.0 mg/kg/injection, schedule: Q04DX003 (ip), vehicle: Klucel (hydroxypropylcellulose) (HPC).
[8] abbreviates: dose: 50.0 mg/kg/injection, schedule: Q04DX003 (ip), vehicle: Klucel (hydroxypropylcellulose) (HPC).

Each structure is given as a SMILES string. Values joined by “and” are separate entries in the source; they are usually repeats but may differ in a detail not shown here. Equal values may be shown once. Inconclusive results and toxic doses are left out.

Take `CC[N+](CC)(CC)CC`: the T/C under setting [1] is 110 % of control; the T/C (dose: 6.0 mg/kg/injection, schedule: Q01DX009 (ip), vehicle: saline with Tween-80) is 183 % of control; the T/C (dose: 9.0 mg/kg/injection, schedule: Q01DX009 (ip), vehicle: saline with Tween-80) was 94 % of control; the T/C under setting [2] was 107 % of control; the T/C (dose: 12.5 mg/kg/injection, schedule: Q04DX003 (ip), vehicle: saline) was 95 % of control; the T/C under setting [3] was 107 % of control. The T/C runs as follows: (dose: 25.0 mg/kg/injection, schedule: Q04DX003 (ip), vehicle: saline) 91 % of control; (dose: 50.0 mg/kg/injection, schedule: Q01DX009 (ip), vehicle: saline) 92 % of control; (dose: 50.0 mg/kg/injection, schedule: Q04DX003 (ip), vehicle: saline) 100 % of control.
`CCOCCN1C=C/C(=C/C=C/c2cc[n+](CCOCC)c3ccccc23)c2ccccc21`: the T/C reads like this: (dose: 0.22 mg/kg/injection, schedule: Q01DX009 (ip), vehicle: Klucel (hydroxypropylcellulose) (HPC)) 100 % of control; (dose: 0.45 mg/kg/injection, schedule: Q01DX009 (ip), vehicle: Klucel (hydroxypropylcellulose) (HPC)) 100 % of control; (dose: 0.9 mg/kg/injection, schedule: Q01DX009 (ip), vehicle: Klucel (hydroxypropylcellulose) (HPC)) 105 % of control.
As for `CCOC(=O)c1ccc(NC(=O)CCl)cc1`, the T/C runs as follows: (dose: 6.25 mg/kg/injection, schedule: Q01DX010 (ip), vehicle: saline) 104 % of control; (dose: 12.5 mg/kg/injection, schedule: Q01DX010 (ip), vehicle: saline) 100 % of control; (dose: 25.0 mg/kg/injection, schedule: Q01DX010 (ip), vehicle: saline) 100 % of control; (dose: 50.0 mg/kg/injection, schedule: Q01DX010 (ip), vehicle: saline) 100 % of control.
As to `C=CCCN1CCCC1`, the T/C under setting [4] was 88 % of control; the T/C (dose: 12.5 mg/kg/injection, schedule: Q04DX003 (ip), vehicle: saline with Tween-80) is 100 % of control; the T/C (dose: 25.0 mg/kg/injection, schedule: Q01DX009 (ip), vehicle: saline with Tween-80) was 100 % of control; the T/C (dose: 25.0 mg/kg/injection, schedule: Q04DX003 (ip), vehicle: saline with Tween-80) is 100 % of control; the T/C (dose: 50.0 mg/kg/injection, schedule: Q04DX003 (ip), vehicle: saline with Tween-80) is 95 % of control.
Regarding `CCCCCCCCC(=O)N1CC1`, the T/C runs as follows: (dose: 50.0 mg/kg/injection, schedule: Q01DX009 (ip), vehicle: Klucel (hydroxypropylcellulose) (HPC)) 95 % of control; under setting [5], 118 % of control; under setting [6], 109 % of control; (dose: 200.0 mg/kg/injection, schedule: Q01DX009 (ip), vehicle: Klucel (hydroxypropylcellulose) (HPC)) 86 % of control; under setting [7], 113 % of control.
Consider `O=CC(NC(=O)N(CCCl)N=O)C(O)C(O)C(O)CO` (centres undefined), for which the T/C was 157 % of control (dose: 1.3 mg/kg/injection, schedule: Q01DX009 (ip), vehicle: saline); 198 % of control (dose: 2.0 mg/kg/injection, schedule: Q01DX009 (ip), vehicle: saline); 230 % of control (dose: 3.0 mg/kg/injection, schedule: Q01DX009 (ip), vehicle: saline); 238 % of control (dose: 4.5 mg/kg/injection, schedule: Q01DX009 (ip), vehicle: saline); 250 % of control (dose: 6.48 mg/kg/injection, schedule: Q04DX003 (ip), vehicle: saline); 238 % of control (dose: 6.7 mg/kg/injection, schedule: Q01DX009 (ip), vehicle: saline). Besides, the T/C (dose: 6.8 mg/kg/injection, schedule: Q01DX009 (ip), vehicle: saline) was 169 % of control; the T/C (dose: 10.0 mg/kg/injection, schedule: Q01DX009 (ip), vehicle: saline) is 203 % of control; the T/C (dose: 10.8 mg/kg/injection, schedule: Q04DX003 (ip), vehicle: saline) was 514 % of control; the T/C (dose: 13.0 mg/kg/injection, schedule: Q01DX001 (ip), vehicle: saline) was 238 % of control and 211 % of control; the T/C (dose: 18.0 mg/kg/injection, schedule: Q04DX003 (ip), vehicle: saline) is 262 % of control; the T/C (dose: 20.0 mg/kg/injection, schedule: Q01DX001 (ip), vehicle: saline) is 237 % of control and 203 % of control. The T/C runs as follows: (dose: 30.0 mg/kg/injection, schedule: Q01DX001 (ip), vehicle: saline) 253 % of control and 95 % of control; (dose: 45.0 mg/kg/injection, schedule: Q01DX001 (ip), vehicle: saline) 254 % of control.
Consider `c1ccc(OCc2ccc(COc3ccccc3)cc2)cc1`, for which the T/C reads like this: (dose: 6.25 mg/kg/injection, schedule: Q01DX009 (ip), vehicle: Klucel (hydroxypropylcellulose) (HPC)) 96 % of control; (dose: 12.5 mg/kg/injection, schedule: Q01DX009 (ip), vehicle: Klucel (hydroxypropylcellulose) (HPC)) 96 % of control; (dose: 25.0 mg/kg/injection, schedule: Q01DX009 (ip), vehicle: Klucel (hydroxypropylcellulose) (HPC)) 92 % of control and 96 % of control; (dose: 25.0 mg/kg/injection, schedule: Q04DX003 (ip), vehicle: Klucel (hydroxypropylcellulose) (HPC)) 100 % of control; under setting [8], 104 % of control; under setting [5], 92 % of control. Besides, the T/C under setting [6] is 100 % of control.
Turning to `CCN1C(=O)c2ccccc2C1=O`, the T/C is, setting by setting: under setting [8], 104 % of control; (dose: 100.0 mg/kg/injection, schedule: Q01DX001 (ip), vehicle: Klucel (hydroxypropylcellulose) (HPC)) 104 % of control; under setting [6], 118 % of control; (dose: 200.0 mg/kg/injection, schedule: Q01DX001 (ip), vehicle: Klucel (hydroxypropylcellulose) (HPC)) 108 % of control; under setting [7], 100 % of control; (dose: 400.0 mg/kg/injection, schedule: Q01DX001 (ip), vehicle: Klucel (hydroxypropylcellulose) (HPC)) 104 % of control.
`C[N+]1=C2CCCCC2=C(N)CC1`: the T/C was 110 % of control (dose: 6.25 mg/kg/injection, schedule: Q01DX009 (ip), vehicle: saline); 100 % of control (dose: 6.25 mg/kg/injection, schedule: Q04DX003 (ip), vehicle: saline sonified); 100 % of control under setting [2]; 100 % of control (dose: 12.5 mg/kg/injection, schedule: Q04DX003 (ip), vehicle: saline sonified); 110 % of control under setting [3]; 100 % of control (dose: 25.0 mg/kg/injection, schedule: Q04DX003 (ip), vehicle: saline sonified).
`Cc1ccc(CNc2ccccc2)cc1`: the T/C by setting is: (dose: 25.0 mg/kg/injection, schedule: Q04DX003 (ip), vehicle: other) 120 % of control; (dose: 50.0 mg/kg/injection, schedule: Q04DX003 (ip), vehicle: other) 105 % of control; (dose: 100.0 mg/kg/injection, schedule: Q04DX003 (ip), vehicle: other) 110 % of control.
For `CCOC(=O)/C=C(/C)SC1=CC(=O)c2ccccc2C1=O`, the T/C (dose: 1.56 mg/kg/injection, schedule: Q01DX009 (ip), vehicle: saline with Tween-80) is 107 % of control and 113 % of control; the T/C under setting [1] is 106 % of control and 107 % of control; the T/C (dose: 6.25 mg/kg/injection, schedule: Q01DX009 (ip), vehicle: saline with Tween-80) was 104 % of control and 117 % of control; the T/C under setting [4] was 107 % of control and 115 % of control.
Take `Cc1sc(C)c2c1C[Se]Cc1c(C)sc(C)c1C[Se]C2`: the T/C reads like this: (dose: 12.5 mg/kg/injection, schedule: Q01DX001 (ip), vehicle: saline with Tween-80) 95 % of control; (dose: 25.0 mg/kg/injection, schedule: Q01DX001 (ip), vehicle: saline with Tween-80) 107 % of control; (dose: 50.0 mg/kg/injection, schedule: Q01DX001 (ip), vehicle: saline with Tween-80) 118 % of control.
